The results in this text go back to ChEMBL document CHEMBL1142643, “Haligramides A and B, two new cytotoxic hexapeptides from the marine sponge Haliclona nigra” (J Nat Prod, 2000).

≈ marks a conversion by molar mass, not a printed value. Starred links: 1 amine or outer side, 2 acyl side, 3 side chain; linkers in the order of their positions; H or OH if unused. Non-standard residues stand in square brackets, D forms with d. Residues, ends and D or L forms follow the SMILES beside them. X1 = O=C(c1csc([C@H](Cc2ccccc2)N[*:1])n1)[*:2]; Met(O) = CS(=O)CC[C@H](N)C(=O)O

Holding throughout (format): functional, cell-based
One experiment deals with A549. Description: Cytotoxicity against human A549 cells after 2 days. Conditions: A549, 48 h.
For the next experiment, the system named is SNB-19. Briefly: Cytotoxicity against human SNB19 cells after 2 days. The following applies: SNB-19, 48 h.
For a further experiment, the system named is SF-539. Description: Cytotoxicity against human SF539 cells after 2 days. The following applies: SF-539, 48 h.
In another experiment the test system is HCT-15. Description: Cytotoxicity against human HCT15 cells after 2 days. Conditions: HCT-15, 48 h.

As for `CSCC[C@@H]1NC(=O)[C@@H]2CCCN2C(=O)[C@@H]2CCCN2C(=O)[C@H](CCSC)NC(=O)c2csc(n2)[C@H](Cc2ccccc2)NC(=O)[C@@H]2CCCN2C1=O` [HALIGRAMIDE A] (cyclo(MPPMP[X1])), the IC50 in the experiment with A549 was determined as 5.17 µg/mL (≈ 6.59 µM); in the experiment on SNB-19, 9.08 µg/mL (≈ 11.6 µM); in the experiment on SF-539, 9 µg/mL (≈ 11.5 µM); in the experiment on HCT-15, 15.6 µg/mL (≈ 19.9 µM).

With `CSCC[C@@H]1NC(=O)[C@@H]2CCCN2C(=O)[C@@H]2CCCN2C(=O)[C@H](CC[S+](C)[O-])NC(=O)c2csc(n2)[C@H](Cc2ccccc2)NC(=O)[C@@H]2CCCN2C1=O` (stereo partly drawn) [HALIGRAMIDE B] (cyclo(MP[X1][Met(O)]PP)), the IC50 with A549 came to 3.89 µg/mL (≈ 4.86 µM); in the experiment on SNB-19, 6.56 µg/mL (≈ 8.2 µM); in the experiment on SF-539 it was 5.01 µg/mL (≈ 6.26 µM); in the experiment on HCT-15, 8.82 µg/mL (≈ 11 µM).

The term IC50 denotes the concentration needed to halve the response being measured.
